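Cultured in 96-well plates, cells were exposed to test compound for 48 hours across five concentrations. The concentration for 50% growth inhibition is given as GI50. At the TGI there is no net growth.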
Tests used:
Experiment in all cases: NCI tumour cell line growth inhibition, 48 h
[1] = test system: HCC-2998 colon
[2] = test system: COLO 205 colon
[3] = test system: ACHN renal
[4] = test system: UO-31 renal
[5] = test system: HT29 colon
[6] = test system: CCRF-CEM leukemia
[7] = test system: OVCAR-4 ovarian
[8] = test system: A549 NSCLC
[9] = test system: OVCAR-8 ovarian
[10] = test system: NCI-H460 lung

| SMILES | GI50 [1] [µM] | TGI [1] [µM] | GI50 [2] [µM] | TGI [2] [µM] | GI50 [3] [µM] | TGI [3] [µM] | GI50 [4] [µM] | TGI [4] [µM] | GI50 [5] [µM] | TGI [5] [µM] | GI50 [6] [µM] | TGI [6] [µM] | GI50 [7] [µM] | TGI [7] [µM] | GI50 [8] [µM] | TGI [8] [µM] | GI50 [9] [µM] | TGI [9] [µM] | GI50 [10] [µM] | TGI [10] [µM] |
| --- | --- | --- | --- | --- | --- | --- | --- | --- | --- | --- | --- | --- | --- | --- | --- | --- | --- | --- | --- | --- |
| Clc1ccc(-c2nc3c(-c4ccc(Cl)cc4)nc(-c4ccccc4)cn3c2-c2ccc(Cl)cc2)cc1 | > 50 | > 50 | > 50 | > 50 | > 50 | > 50 | > 50 | > 50 | > 50 | > 50 | > 50 | > 50 | > 50 | > 50 | > 50 | > 50 | > 50 | > 50 | > 50 | > 50 |
| C/C=C/C=N/N(c1nnc(-c2ccccc2)c(-c2ccccc2)n1)S(=O)(=O)c1ccc(C)cc1 | – | 31.3 | – | 35.7 | – | 24.3 | – | 19.6 | – | 24.1 | – | 9.21 | – | 28.2 | – | 28.1 | – | 20.7 | – | 28.3 |
| C/C(CN1C(=O)c2ccccc2C1=O)=N\NS(=O)(=O)c1ccccc1 | – | > 100 | – | > 100 | – | > 100 | – | > 100 | – | > 100 | – | > 100 | – | > 100 | – | > 100 | – | > 100 | – | > 100 |
| CC/C(=N\Nc1nc2ccccc2n1C)c1ccccn1 | 0.314 | 7.23 | < 0.01 | 2.94 | < 0.016 | 6.28 | 0.0761 | 1.16 | < 0.0269 | 18 | 0.0294 | > 36 | < 0.0185 | 4.68 | 0.103 | 11.4 | 0.0929 | 14 | 0.114 | 1.82 |
| Cc1ccc(/C=C(\C#N)n2nnc3cc(Cl)c(Cl)cc32)cc1 | 1.9 | 4.12 | 2.62 | 7.16 | 1.8 | 3.63 | 1.59 | 3.35 | 2.59 | 13.6 | 1.32 | > 100 | 2.69 | 81.5 | 3.58 | > 100 | 2.87 | > 100 | 2.43 | 6.52 |
| O=C(CCCn1c2c(sc3ncccc32)c(=O)n2nnc(-c3ccccc3)c12)NCCc1cnc[nH]1 | 2.03 | 29.9 | 6.28 | 23.5 | 15.3 | 31 | 11.9 | 26.7 | 3.89 | 54.9 | 0.222 | 4.48 | 15.4 | 32.2 | 8.74 | 34.7 | 0.0952 | 17.3 | 3.66 | 13.1 |
| O=C1Cc2cc(CCn3ccnc3)c(Cl)cc2N1 | 32.2 | > 100 | 15.1 | > 100 | 20.3 | > 100 | 58 | > 100 | > 100 | > 100 | 3.37 | > 100 | 45 | > 100 | 7.63 | > 100 | 24.1 | > 100 | 16.1 | > 100 |
| CCN1CCC[C@H]1c1cc(O)c2c(c1OC)C[C@H]1C[C@H]3[C@H](N)C(=O)C(C(N)=O)=C(O)[C@@]3(O)C(=O)C1=C2O | 0.118 | 3.01 | 0.0583 | 0.682 | 0.0517 | 0.802 | 0.0528 | 2.93 | 0.112 | 5.43 | 0.0634 | 1.73 | 0.0675 | 2.73 | 0.207 | 8.72 | 0.0587 | 3.01 | 0.0602 | 1.9 |
| CCCNc1nc(N(C)O)nc(N(C)O)n1 | 3.04 | > 100 | 2.23 | 32.2 | 1.03 | > 100 | 0.981 | > 40.8 | 4.53 | > 100 | 0.432 | 5.46 | 2.48 | > 100 | 1.8 | > 100 | 2.45 | > 100 | 0.563 | > 56.8 |
| NC(=S)N/N=C(/CC(=O)c1ccc([N+](=O)[O-])cc1)C(=O)Nc1ncc([N+](=O)[O-])s1 | – | > 100 | – | > 100 | – | > 100 | – | > 100 | – | > 100 | – | > 100 | – | > 100 | – | > 100 | – | > 100 | – | > 100 |
| CCCCCCN(CCCCCC)CCCNc1nccc2ccccc12 | 1.98 | 3.75 | 1.48 | 3.07 | 1.9 | 4.47 | 1.35 | 3.04 | 0.513 | 1.95 | 2.47 | 10.7 | 2.09 | 7.72 | 2.64 | 7.98 | 1.67 | 3.19 | 1.4 | 2.88 |
| O=S(=O)(NCCNc1nccc(-c2c(-c3cccc(O)c3)nc3sccn23)n1)c1ccc(F)cc1 | 10.2 | 25.7 | 0.779 | 11.5 | 3.53 | 28.4 | 4.32 | 21 | 2.66 | 32.4 | 2.8 | > 100 | 6.5 | 41.3 | 3.51 | 36.1 | 4.61 | 39.3 | 4.2 | 22.8 |
| Cc1c2ccccc2c(C)c2c3c(ccc12)C(=O)C=CC3=O | – | > 100 | – | 31.5 | – | 33.3 | – | 41.7 | – | > 65.8 | – | 6.75 | – | 39.4 | – | > 100 | – | 28.7 | – | > 100 |

Reference: PubChem BioAssay (NCI)
